Assay [1] deals with murine B16 melanoma cells. Nature of the assay: B16 murine melanoma cell proliferation (Promega Cell Titer 96 AQueous assay). The class given is cell-based. The conditions noted are these: 48 hours incubation, 0-90 micrograms/ml, FIG. 1. The protocol:
5000 cells/well of murine B16 melanoma cells were plated in a 96-well plate and incubated for 48 hours with varying concentrations of cyclodextrin tetradecasulfate (0-90 micrograms/ml). Non-radioactive assay solution was prepared according to manufacturer's protocol (Promega Cell Titer 96 AQueous Assay Reagents). Cells were read using a Biorad benchmark microplate reader 2 hours after the assay solution was added to the well.

In another assay the test system is lung metastasis. Nature of the assay: Lung metastasis in tumorigenic mice treated via drinking water. The note with it: C57B1-6 mice, 10 mg/ml in drinking water for two weeks, FIG. 2. The class given is in vivo. The protocol: C57B1-6 mice (n=2) were treated with 10 mg/ml β-cyclodextrin tetradecasulfate in their drinking water for two weeks. The control animal (n=2) was given cyclodextrin-free drinking water.

As to β-cyclodextrin tetradecasulfate, the cell proliferation result in assay [1] was “cell proliferation decreases”. Also, in the assay on lung metastasis, the “lung metastasis compared to the control animal” value is recorded as “⅓ fewer lung metastasis”.

These data come from patent US20030236223A1, “Metastasis modulating activity of highly sulfated oligosaccharides” (Greenville Hospital System, priority 2002, published 2003).
